# Source: patent publication US8609065B2, “Molecules for targeting compounds to various selected organs, tissues or tumor cells” (Prosensa Technologies B.V., priority 2007, dated 2013)
# Peptide text beside a SMILES is read from it.
# Key:
# [1] = test system: N1E-115 mouse neuroblastoma cells; test: In vitro uptake of FAM-labeled peptides into neuroblastoma cells (fluorescence microscopy); type: cell-based; details: FAM-labeled peptide, N1E-115 cells
# Protocol: A selection of peptides was synthesized and provided with a fluorescent label (FAM) and screened for uptake on mouse neuroblastoma cells in vitro.
# N1E-115 mouse neuroblastoma cells were incubated with the FAM-labeled peptides and photographed with an inverted fluorescence microscope, without previous fixation.
# [2] = test system: KM109 cells; test: Uptake of fluorescently labeled variants of THRPPMWSPVWP on KM109 cells; type: cell-based; details: fluorescently labeled peptide
# Protocol: Several variants of peptide THRPPMWSPVWP (SEQ ID NO: 1) (see Table 2) were selected, synthesized with a fluorescent label and tested for uptake on KM109 cells. Peptides 3, 7, 8, 9, 10, and 11 were tested. […] The other peptides depicted in the table below are yet to be tested for uptake on KM109 cells. Moreover, all peptides are to be tested for uptake on neuroblastoma cells in a similar fashion.
# [3] = test system: muscle cells; test: Selective uptake by muscle cells (summary statement); type: cell-based
# Description: Therefore, these may be used for targeting diagnostic moieties or biologically active moieties to an organ or tissue or cell type of interest, especially to muscle cells or across the blood brain barrier to brain cells, to neuronal cells or to tumor cells of neuronal or neuroectodermal origin.
# [4] = In vivo targeting to brain cells, Cy5-labeled peptide imaging; details: 7 nmol intravenously, nude mouse
# Protocol: Peptide THRPPMWSPVWP (SEQ ID NO: 1) was labeled with a Cy5 fluorescent label and 7 nmol was injected intravenously into the tail vein of a nude mouse. Pictures were taken with a Maestro imaging system using the filters for Cy5 detection.
# On the left side of FIGS. 1A and 1B the detected Cy5 pattern is shown separately in red for quantitation. The numbers on the left side indicate the amount of detected Cy5 label.
Molecule,uptake on KM109 cells [2],selective uptake by muscle cells [3],further results
LPWKPLG,–,–,"intracellular staining pattern after uptake [1]: uniform staining of the cytoplasm as well as the nucleus; uptake by the neuroblastoma cells ([1]; inverted fluorescence microscope, no fixation): efficiently taken up"
HRPPMWSPVWP,taken up very efficiently,selectively taken up by muscle cells,–
THRPPMWS,"taken up, although at a lower level",selectively taken up by muscle cells,–
HRPPMWSPVW,"taken up, although at a lower level",selectively taken up by muscle cells,–
CSCC[C@H](NC(=O)[C@@H]1CCCN1C(=O)[C@@H]1CCCN1C(=O)[C@H](CCCNC(=N)N)NC(=O)[C@H](Cc1c[nH]cn1)NC(=O)[C@@H](N)[C@@H](C)O)C(=O)N[C@@H](Cc1c[nH]c2ccccc12)C(=O)N[C@@H](CO)C(=O)N1CCC[C@H]1C(=O)N[C@H](C(=O)N[C@@H](Cc1c[nH]c2ccccc12)C(=O)N1CCC[C@H]1C(=O)O)C(C)C [THRPPMWSPVWP] (H-THRPPMWSPVWP-OH; N-terminus and C-terminus assumed),–,–,crossing of the blood brain barrier [4]: able to cross the blood brain barrier; Cy5 signal in the brain ([4]; 20 minutes after injection): clear signal could be detected in the brain
